Results reported in patent publication US7829708B2, “Metabolically inert antifolates for treating disorders of abnormal cellular proliferation and inflammation” (Chelsea Therapeutics, Inc., priority 2004, dated 2010).

Tests used:
[1] = molecular target: T1, human DHFR (Homo sapiens, UniProt P00374); test: Inhibition of recombinant dihydrofolate reductase in vitro; assay type: biochemical; details: read-out: I50 (human DHFR)
T1 sequence (P00374 1-187): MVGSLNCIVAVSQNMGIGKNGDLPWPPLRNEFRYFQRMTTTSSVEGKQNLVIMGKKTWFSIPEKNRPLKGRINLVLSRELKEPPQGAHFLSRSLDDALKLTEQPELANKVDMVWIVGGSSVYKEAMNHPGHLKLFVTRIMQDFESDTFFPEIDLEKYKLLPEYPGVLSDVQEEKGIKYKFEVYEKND
From the text: (§1) The ability of M-TREX to inhibit recombinant dihydrofolate reductase (DR) and thymidylate synthase (TS) in vitro studied in comparison to other antifolate drugs.

[2] = molecular target: Human TS (Homo sapiens, UniProt P04818); test: Inhibition of recombinant thymidylate synthase in vitro; assay type: biochemical; details: read-out: I50 (Human TS)
Chain of Human TS (P04818 whole entry): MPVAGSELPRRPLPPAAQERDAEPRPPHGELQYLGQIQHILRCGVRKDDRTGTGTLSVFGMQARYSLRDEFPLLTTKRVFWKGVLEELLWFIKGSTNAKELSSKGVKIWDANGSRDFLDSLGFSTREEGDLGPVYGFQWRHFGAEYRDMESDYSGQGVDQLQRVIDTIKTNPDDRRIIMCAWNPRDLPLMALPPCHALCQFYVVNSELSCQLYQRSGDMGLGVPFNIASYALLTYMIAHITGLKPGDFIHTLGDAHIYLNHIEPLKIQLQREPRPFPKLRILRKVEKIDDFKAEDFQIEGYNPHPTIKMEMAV
From the text: as §1

IC50 [1] [nM] | IC50 [2] [nM] | SMILES
17 | 3800 | C=C(CC(NC(=O)c1ccc(CCc2ccc3nc(N)nc(N)c3c2)cc1)C(=O)O)C(=O)O (stereo not drawn) [M-TREX, 4-Amino-4-deoxy-5,8,10-trideazapteroyl-4′-methylene glutamic acid]
44 | – | C=C(CC(NC(=O)c1ccc(CCc2cnc3nc(N)nc(N)c3n2)cc1)C(=O)O)C(=O)O (stereo not drawn) [MDAM, methylene-1-deazaaminopterine, reference compound]
